# Data: PMC6934184, “Selective DNA-PKcs inhibition extends the therapeutic index of localized radiotherapy and chemotherapy” (The Journal of Clinical Investigation, 2019)
# Target: T1, MAP3K10 (MLK2) (Homo sapiens, UniProt Q02779)
# T1 construct: purchased Thermo Fisher Scientific (Life Technologies) SelectScreen
# Experiment: SelectScreen LanthaScreen
# Assay type: binding
# Conditions: read-out: % displacement
# How it was run: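 NU5455 was profiled across the SelectScreen Broad panel of kinase activity and binding assays. Z'LYTE reactions such as CSF1R ran at apparent Km ATP, while the Adapta CAMK1 assay used ATP listed as 10. Values are given as percent.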
# T1 sequence (Q02779 whole entry): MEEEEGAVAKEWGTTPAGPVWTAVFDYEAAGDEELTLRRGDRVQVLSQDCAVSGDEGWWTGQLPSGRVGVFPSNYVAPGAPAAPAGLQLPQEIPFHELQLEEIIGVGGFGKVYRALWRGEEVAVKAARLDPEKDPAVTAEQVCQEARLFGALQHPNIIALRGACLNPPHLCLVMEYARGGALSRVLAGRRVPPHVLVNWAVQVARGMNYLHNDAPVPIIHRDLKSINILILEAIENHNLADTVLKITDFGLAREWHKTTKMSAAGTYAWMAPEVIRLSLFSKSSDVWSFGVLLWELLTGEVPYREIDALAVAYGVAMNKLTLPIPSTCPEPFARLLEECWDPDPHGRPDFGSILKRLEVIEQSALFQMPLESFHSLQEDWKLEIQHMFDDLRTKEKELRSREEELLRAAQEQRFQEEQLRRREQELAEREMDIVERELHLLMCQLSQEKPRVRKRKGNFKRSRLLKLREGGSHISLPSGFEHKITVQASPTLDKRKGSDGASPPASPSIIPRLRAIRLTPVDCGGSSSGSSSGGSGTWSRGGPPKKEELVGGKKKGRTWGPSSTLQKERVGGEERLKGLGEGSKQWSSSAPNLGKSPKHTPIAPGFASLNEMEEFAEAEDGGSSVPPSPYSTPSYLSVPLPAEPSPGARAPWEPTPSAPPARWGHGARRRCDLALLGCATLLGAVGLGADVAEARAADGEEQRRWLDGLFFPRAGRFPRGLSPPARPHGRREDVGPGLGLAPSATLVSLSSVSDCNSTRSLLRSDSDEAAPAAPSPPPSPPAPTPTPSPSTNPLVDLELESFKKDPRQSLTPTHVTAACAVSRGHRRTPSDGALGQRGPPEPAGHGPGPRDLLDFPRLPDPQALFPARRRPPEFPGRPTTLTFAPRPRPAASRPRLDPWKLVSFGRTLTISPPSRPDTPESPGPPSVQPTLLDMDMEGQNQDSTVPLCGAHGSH
structure (smiles),measurement,value
CN(C(=O)CN1CCOCC1)c1ccc2sc3c(-c4cccc5c(=O)cc(N6CC7CCC(C6)O7)oc45)cccc3c2c1 [NU5455],inhibition at 1 µM,1.5%
